# In PubChem BioAssay AID2060484 (Molecular Pharmacology Branch, DTP, NCI, 2025):
# System: SUM149PT spheroids with HUVEC/MSC, viability
# Test: Anticancer human tumor SUM149PT cell line growth inhibition [GQUAD];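 note: spheroids exposed to drugs for seven days before readout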;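 for viability, T/C: percent viability relative to DMSO vehicle control taken as 100%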
# Conditions: for IC50: curve of first compound; for viability, T/C: stronger effect = lower value
# How it was run: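 Multi-cell-type spheroids of tumor cells with HUVEC and mesenchymal stem cells, treated with drug combinations. Concentrations descend in half-log steps from near clinical Cmax, or from 10 microM where Cmax is unknown; viability read-out.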
# [1] = second compound 0.0316 µM, first compound 0.0316 µM
# [2] = second compound 0.0316 µM, first compound 0.1 µM
# [3] = second compound 0.0316 µM, first compound 0.316 µM
# [4] = second compound 0.0316 µM, first compound 1 µM
# [5] = second compound 0.0316 µM, first compound 3.16 µM
# [6] = second compound 0.0316 µM, first compound 10 µM
# [7] = second compound 0.1 µM, first compound 0.0316 µM
# [8] = second compound 0.1 µM, first compound 0.1 µM
# [9] = second compound 0.1 µM, first compound 0.316 µM
# [10] = second compound 0.1 µM, first compound 1 µM
# [11] = second compound 0.1 µM, first compound 3.16 µM
# [12] = second compound 0.1 µM, first compound 10 µM
# [13] = second compound 0.316 µM, first compound 0.0316 µM
# [14] = second compound 0.316 µM, first compound 0.1 µM
# [15] = second compound 0.316 µM, first compound 0.316 µM
# [16] = second compound 0.316 µM, first compound 1 µM
# [17] = second compound 0.316 µM, first compound 3.16 µM
# [18] = second compound 0.316 µM, first compound 10 µM
# [19] = second compound 1 µM, first compound 0.0316 µM
# [20] = second compound 1 µM, first compound 0.1 µM
# [21] = second compound 1 µM, first compound 0.316 µM
# [22] = second compound 1 µM, first compound 1 µM
# [23] = second compound 1 µM, first compound 3.16 µM
# [24] = second compound 1 µM, first compound 10 µM
# [25] = second compound 3.16 µM, first compound 0.0316 µM
# [26] = second compound 3.16 µM, first compound 0.1 µM
# [27] = second compound 3.16 µM, first compound 0.316 µM
# [28] = second compound 3.16 µM, first compound 1 µM
# [29] = second compound 3.16 µM, first compound 3.16 µM
# [30] = second compound 3.16 µM, first compound 10 µM
# [31] = second compound 10 µM, first compound 0.0316 µM
# [32] = second compound 10 µM, first compound 0.1 µM
# [33] = second compound 10 µM, first compound 0.316 µM
# [34] = second compound 10 µM, first compound 1 µM
# [35] = second compound 10 µM, first compound 3.16 µM
# [36] = second compound 10 µM, first compound 10 µM
structure (smiles),measurement,setting,value
COc1ncnc(C2CC2)c1-c1ncc2cnn(Cc3ccc(-c4nc(C(F)(F)F)cn4C(C)C)cc3)c2n1 + Cc1[nH]c2ccc(F)cc2c1-c1nc2c3cccnc3c3ncccc3c2[nH]1,IC50,second compound 0.0316 µM,> 10000 nM
same,IC50,second compound 0.1 µM,> 10000 nM
same,IC50,second compound 0.316 µM,> 10000 nM
same,IC50,second compound 1 µM,> 10000 nM
same,IC50,second compound 3.16 µM,> 10000 nM
same,IC50,second compound 10 µM,> 10000 nM
same,"viability, T/C",[1],106%
same,"viability, T/C",[2],87.2%
same,"viability, T/C",[3],92.7%
same,"viability, T/C",[4],92.4%
same,"viability, T/C",[5],91.6%
same,"viability, T/C",[6],95.4%
same,"viability, T/C",[7],103%
same,"viability, T/C",[8],104%
same,"viability, T/C",[9],87.2%
same,"viability, T/C",[10],90.1%
same,"viability, T/C",[11],91.2%
same,"viability, T/C",[12],94.3%
same,"viability, T/C",[13],97.4%
same,"viability, T/C",[14],97.6%
same,"viability, T/C",[15],68.9%
same,"viability, T/C",[16],93%
same,"viability, T/C",[17],97.8%
same,"viability, T/C",[18],94.6%
same,"viability, T/C",[19],98.1%
same,"viability, T/C",[20],98.1%
same,"viability, T/C",[21],92.3%
same,"viability, T/C",[22],92.2%
same,"viability, T/C",[23],90.1%
same,"viability, T/C",[24],95.3%
same,"viability, T/C",[25],97.4%
same,"viability, T/C",[26],89.6%
same,"viability, T/C",[27],86.1%
same,"viability, T/C",[28],82.3%
same,"viability, T/C",[29],89.4%
same,"viability, T/C",[30],89.2%
same,"viability, T/C",[31],91.8%
same,"viability, T/C",[32],91.4%
same,"viability, T/C",[33],85.4%
same,"viability, T/C",[34],83.7%
same,"viability, T/C",[35],90.8%
same,"viability, T/C",[36],92.5%
O=C(NO)c1cnc(N2CCN(S(=O)(=O)c3ccc4ccccc4c3)CC2)nc1 + Cc1[nH]c2ccc(F)cc2c1-c1nc2c3cccnc3c3ncccc3c2[nH]1,IC50,second compound 0.0316 µM,381 nM
same,IC50,second compound 0.1 µM,450 nM
same,IC50,second compound 0.316 µM,539 nM
same,IC50,second compound 1 µM,617 nM
same,IC50,second compound 3.16 µM,660 nM
same,IC50,second compound 10 µM,801 nM
same,"viability, T/C",[1],100%
same,"viability, T/C",[2],97.1%
same,"viability, T/C",[3],59.4%
same,"viability, T/C",[4],1.37%
same,"viability, T/C",[5],0.22%
same,"viability, T/C",[6],2.18%
same,"viability, T/C",[7],102%
same,"viability, T/C",[8],102%
same,"viability, T/C",[9],67.8%
same,"viability, T/C",[10],9.4%
same,"viability, T/C",[11],0.18%
same,"viability, T/C",[12],0.21%
same,"viability, T/C",[13],104%
same,"viability, T/C",[14],101%
same,"viability, T/C",[15],78%
same,"viability, T/C",[16],17.8%
same,"viability, T/C",[17],0.15%
same,"viability, T/C",[18],1.25%
same,"viability, T/C",[19],105%
same,"viability, T/C",[20],98.1%
same,"viability, T/C",[21],78.8%
same,"viability, T/C",[22],30.1%
same,"viability, T/C",[23],0.16%
same,"viability, T/C",[24],0.2%
same,"viability, T/C",[25],107%
same,"viability, T/C",[26],101%
same,"viability, T/C",[27],74.2%
same,"viability, T/C",[28],38.8%
same,"viability, T/C",[29],0.2%
same,"viability, T/C",[30],0.4%
same,"viability, T/C",[31],106%
same,"viability, T/C",[32],93.5%
same,"viability, T/C",[33],79.4%
same,"viability, T/C",[34],47.4%
same,"viability, T/C",[35],0.29%
same,"viability, T/C",[36],0.25%
